Activity calls are given as the source filed them.
Legend:
[1] = molecular target: T1, Structural maintenance of chromosomes protein 1A (Homo sapiens, UniProt Q14683)
T1 sequence (Q14683 whole entry): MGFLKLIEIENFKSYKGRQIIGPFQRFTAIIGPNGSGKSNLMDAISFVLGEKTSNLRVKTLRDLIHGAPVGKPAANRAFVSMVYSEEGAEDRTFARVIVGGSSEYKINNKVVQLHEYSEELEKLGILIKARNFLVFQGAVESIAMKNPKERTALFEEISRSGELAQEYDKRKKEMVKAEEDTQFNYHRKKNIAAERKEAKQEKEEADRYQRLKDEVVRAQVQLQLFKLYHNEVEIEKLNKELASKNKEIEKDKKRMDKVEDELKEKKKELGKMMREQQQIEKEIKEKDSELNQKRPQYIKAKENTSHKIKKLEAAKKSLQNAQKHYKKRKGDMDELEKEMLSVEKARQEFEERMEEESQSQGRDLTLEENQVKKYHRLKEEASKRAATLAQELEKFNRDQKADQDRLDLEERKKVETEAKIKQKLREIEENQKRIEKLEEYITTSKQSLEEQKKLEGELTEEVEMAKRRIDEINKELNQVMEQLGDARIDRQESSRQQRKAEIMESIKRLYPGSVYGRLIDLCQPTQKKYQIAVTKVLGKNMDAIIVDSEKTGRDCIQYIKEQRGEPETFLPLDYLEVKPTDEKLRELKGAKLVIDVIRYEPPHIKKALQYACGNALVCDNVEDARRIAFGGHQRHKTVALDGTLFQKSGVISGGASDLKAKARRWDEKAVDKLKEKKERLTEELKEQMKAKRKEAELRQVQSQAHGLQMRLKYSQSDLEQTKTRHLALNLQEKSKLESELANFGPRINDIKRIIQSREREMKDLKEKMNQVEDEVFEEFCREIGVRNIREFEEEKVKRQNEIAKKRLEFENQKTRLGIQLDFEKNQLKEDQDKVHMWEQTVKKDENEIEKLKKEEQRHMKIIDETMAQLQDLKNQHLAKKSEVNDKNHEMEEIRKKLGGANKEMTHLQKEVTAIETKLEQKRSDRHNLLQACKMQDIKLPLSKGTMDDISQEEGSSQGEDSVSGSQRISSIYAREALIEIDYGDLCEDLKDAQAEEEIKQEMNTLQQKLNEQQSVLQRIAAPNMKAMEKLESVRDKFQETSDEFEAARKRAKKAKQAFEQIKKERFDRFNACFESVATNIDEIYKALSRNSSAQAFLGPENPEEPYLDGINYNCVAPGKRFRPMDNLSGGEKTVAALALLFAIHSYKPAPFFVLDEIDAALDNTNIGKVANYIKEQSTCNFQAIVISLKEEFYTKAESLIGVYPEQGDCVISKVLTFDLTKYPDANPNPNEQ

GTP-binding protein 4 = GTP-binding protein 4 (Homo sapiens, UniProt Q9BZE4)
[2] = molecular target: Receptor-interacting serine/threonine-protein kinase 2 (Homo sapiens, UniProt O43353)
Receptor-interacting serine/threonine-protein kinase 2, sequence (O43353 whole entry): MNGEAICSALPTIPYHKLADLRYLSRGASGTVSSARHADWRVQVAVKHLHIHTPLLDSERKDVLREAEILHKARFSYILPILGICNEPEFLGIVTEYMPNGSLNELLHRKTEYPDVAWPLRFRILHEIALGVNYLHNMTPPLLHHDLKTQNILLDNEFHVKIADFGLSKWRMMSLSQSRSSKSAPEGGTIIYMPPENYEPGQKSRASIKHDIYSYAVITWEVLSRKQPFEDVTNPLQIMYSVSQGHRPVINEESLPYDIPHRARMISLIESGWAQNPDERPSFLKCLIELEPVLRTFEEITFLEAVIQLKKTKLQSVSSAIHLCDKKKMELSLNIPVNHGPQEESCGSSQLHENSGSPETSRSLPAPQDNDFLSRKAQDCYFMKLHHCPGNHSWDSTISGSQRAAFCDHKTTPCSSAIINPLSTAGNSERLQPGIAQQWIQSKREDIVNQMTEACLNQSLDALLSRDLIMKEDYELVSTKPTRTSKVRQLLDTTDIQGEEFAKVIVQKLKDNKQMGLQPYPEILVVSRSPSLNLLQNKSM

[3] = molecular target: Cyclin-dependent kinase 3 (Homo sapiens, UniProt Q00526)
Cyclin-dependent kinase 3, sequence (Q00526 whole entry): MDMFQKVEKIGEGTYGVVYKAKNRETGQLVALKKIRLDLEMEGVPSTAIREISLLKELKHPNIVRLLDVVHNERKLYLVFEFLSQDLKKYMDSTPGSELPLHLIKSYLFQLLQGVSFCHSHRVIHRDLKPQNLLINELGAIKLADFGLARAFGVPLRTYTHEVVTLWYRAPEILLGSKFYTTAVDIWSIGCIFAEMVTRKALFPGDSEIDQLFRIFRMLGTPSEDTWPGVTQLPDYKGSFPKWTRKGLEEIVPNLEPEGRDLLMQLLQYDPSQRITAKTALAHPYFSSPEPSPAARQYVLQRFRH

[4] = molecular target: Mitogen-activated protein kinase 3 (Homo sapiens, UniProt P27361)
Mitogen-activated protein kinase 3, sequence (P27361 whole entry): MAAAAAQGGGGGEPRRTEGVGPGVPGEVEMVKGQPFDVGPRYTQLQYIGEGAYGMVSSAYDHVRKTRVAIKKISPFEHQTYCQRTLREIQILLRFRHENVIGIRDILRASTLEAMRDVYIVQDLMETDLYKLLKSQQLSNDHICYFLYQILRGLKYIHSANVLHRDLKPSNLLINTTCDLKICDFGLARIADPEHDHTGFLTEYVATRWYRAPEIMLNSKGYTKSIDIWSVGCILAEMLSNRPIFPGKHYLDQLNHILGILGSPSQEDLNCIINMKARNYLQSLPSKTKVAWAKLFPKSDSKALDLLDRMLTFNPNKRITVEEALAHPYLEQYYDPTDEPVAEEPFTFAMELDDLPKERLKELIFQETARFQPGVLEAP

[5] = molecular target: Ras-related protein Rab-6A (Homo sapiens, UniProt P20340)
Ras-related protein Rab-6A, sequence (P20340 whole entry): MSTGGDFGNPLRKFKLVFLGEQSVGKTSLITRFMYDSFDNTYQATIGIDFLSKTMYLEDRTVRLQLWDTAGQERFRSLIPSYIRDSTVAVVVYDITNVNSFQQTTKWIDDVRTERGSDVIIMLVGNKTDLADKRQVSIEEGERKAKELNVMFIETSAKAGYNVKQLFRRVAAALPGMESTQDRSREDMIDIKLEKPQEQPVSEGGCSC

[6] = molecular target: Serine/threonine-protein kinase 26 (Homo sapiens, UniProt Q9P289)
Serine/threonine-protein kinase 26, sequence (Q9P289 whole entry): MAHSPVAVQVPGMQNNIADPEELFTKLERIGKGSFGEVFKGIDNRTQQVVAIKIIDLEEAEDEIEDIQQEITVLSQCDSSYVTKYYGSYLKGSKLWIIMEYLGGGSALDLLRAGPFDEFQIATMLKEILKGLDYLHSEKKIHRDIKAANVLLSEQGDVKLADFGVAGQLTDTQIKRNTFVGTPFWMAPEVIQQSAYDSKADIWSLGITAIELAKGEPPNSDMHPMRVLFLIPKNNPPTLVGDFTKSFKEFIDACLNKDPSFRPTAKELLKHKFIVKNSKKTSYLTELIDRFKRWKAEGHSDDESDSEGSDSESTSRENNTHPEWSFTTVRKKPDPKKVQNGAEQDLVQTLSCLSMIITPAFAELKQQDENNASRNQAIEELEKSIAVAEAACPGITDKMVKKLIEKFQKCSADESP

[7] = molecular target: Serine/threonine-protein kinase SIK2 (Homo sapiens, UniProt Q9H0K1)
[8] = molecular target: Mitogen-activated protein kinase 11 (Homo sapiens, UniProt Q15759)
Mitogen-activated protein kinase 11, sequence (Q15759 whole entry): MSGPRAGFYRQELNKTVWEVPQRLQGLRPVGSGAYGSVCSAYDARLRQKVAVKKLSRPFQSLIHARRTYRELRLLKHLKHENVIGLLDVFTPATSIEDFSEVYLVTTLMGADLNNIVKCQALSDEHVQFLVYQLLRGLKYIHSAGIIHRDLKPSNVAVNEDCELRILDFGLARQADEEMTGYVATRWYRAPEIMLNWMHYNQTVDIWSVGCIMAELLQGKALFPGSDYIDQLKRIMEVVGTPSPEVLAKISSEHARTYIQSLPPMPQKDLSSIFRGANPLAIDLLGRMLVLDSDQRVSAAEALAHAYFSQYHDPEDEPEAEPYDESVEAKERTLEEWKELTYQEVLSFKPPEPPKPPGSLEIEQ

[9] = molecular target: DNA topoisomerase 2-alpha (Homo sapiens, UniProt P11388)
DNA topoisomerase 2-alpha, sequence (P11388 whole entry): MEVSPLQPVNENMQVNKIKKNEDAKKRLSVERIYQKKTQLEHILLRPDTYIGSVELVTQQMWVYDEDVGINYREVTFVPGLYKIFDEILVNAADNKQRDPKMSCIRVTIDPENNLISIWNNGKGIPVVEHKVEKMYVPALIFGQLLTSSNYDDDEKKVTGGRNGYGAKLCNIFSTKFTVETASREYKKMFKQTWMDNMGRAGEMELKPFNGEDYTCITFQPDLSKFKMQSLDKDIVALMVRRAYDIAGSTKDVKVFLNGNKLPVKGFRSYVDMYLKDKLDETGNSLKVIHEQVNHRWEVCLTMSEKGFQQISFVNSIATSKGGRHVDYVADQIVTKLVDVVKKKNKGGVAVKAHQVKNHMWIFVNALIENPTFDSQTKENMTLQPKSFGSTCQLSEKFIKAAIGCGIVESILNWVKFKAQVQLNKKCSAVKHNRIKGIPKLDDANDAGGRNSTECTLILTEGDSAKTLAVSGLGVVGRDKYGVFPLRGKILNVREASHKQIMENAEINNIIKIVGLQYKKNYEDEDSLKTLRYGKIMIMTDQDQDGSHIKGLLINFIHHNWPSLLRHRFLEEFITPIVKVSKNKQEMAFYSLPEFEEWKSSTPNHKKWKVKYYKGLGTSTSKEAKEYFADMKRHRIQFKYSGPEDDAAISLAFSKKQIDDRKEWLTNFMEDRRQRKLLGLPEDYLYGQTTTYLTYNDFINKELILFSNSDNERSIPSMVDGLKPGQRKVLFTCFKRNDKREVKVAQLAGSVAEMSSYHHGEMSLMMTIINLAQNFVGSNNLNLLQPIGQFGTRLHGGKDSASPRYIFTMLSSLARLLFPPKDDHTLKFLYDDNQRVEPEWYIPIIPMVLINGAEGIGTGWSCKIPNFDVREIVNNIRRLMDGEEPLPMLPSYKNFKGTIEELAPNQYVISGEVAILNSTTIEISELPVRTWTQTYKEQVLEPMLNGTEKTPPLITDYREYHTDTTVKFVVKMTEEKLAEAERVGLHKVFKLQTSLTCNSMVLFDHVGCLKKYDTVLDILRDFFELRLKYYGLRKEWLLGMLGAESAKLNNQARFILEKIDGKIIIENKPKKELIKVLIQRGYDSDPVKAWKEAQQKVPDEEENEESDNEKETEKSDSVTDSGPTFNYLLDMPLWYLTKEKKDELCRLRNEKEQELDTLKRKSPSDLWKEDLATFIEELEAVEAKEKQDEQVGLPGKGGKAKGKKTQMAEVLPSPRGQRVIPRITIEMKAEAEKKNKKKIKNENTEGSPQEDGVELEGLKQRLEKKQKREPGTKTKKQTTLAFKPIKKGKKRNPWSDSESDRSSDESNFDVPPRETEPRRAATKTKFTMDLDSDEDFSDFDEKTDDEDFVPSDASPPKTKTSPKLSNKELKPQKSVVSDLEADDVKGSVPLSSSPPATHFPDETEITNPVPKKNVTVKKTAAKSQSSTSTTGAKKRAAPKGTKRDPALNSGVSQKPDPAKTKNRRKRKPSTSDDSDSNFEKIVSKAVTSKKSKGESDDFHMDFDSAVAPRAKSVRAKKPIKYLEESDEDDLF

[10] = molecular target: cAMP-dependent protein kinase catalytic subunit gamma (Homo sapiens, UniProt P22612)
cAMP-dependent protein kinase catalytic subunit gamma, sequence (P22612 whole entry): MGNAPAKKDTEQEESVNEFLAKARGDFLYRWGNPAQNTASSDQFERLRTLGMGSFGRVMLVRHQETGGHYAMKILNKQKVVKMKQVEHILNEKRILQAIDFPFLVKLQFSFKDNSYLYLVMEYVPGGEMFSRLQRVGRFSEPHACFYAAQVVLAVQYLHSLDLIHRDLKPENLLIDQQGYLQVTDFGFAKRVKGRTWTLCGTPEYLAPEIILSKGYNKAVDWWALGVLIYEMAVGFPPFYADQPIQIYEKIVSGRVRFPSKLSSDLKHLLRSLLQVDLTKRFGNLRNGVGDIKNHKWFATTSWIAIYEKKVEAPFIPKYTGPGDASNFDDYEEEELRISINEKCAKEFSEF

[11] = molecular target: Tyrosine-protein kinase SYK (Homo sapiens, UniProt P43405)
[12] = molecular target: Mitogen-activated protein kinase 9 (Homo sapiens, UniProt P45984)
Mitogen-activated protein kinase 9, sequence (P45984 whole entry): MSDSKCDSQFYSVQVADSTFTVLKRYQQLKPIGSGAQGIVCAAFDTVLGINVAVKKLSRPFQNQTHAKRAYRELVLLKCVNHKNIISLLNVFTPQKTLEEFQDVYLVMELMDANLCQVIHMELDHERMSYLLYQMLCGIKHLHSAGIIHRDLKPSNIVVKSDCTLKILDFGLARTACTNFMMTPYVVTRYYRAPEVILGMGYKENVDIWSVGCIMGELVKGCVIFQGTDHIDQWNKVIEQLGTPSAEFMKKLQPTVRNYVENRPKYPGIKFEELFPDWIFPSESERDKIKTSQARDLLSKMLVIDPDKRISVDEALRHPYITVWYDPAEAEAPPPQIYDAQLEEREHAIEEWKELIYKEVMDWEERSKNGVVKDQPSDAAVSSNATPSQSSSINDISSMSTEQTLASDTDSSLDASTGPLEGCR

[13] = molecular target: T2, ATP-dependent 6-phosphofructokinase, platelet type (Homo sapiens, UniProt Q01813)
T2 sequence (Q01813 whole entry): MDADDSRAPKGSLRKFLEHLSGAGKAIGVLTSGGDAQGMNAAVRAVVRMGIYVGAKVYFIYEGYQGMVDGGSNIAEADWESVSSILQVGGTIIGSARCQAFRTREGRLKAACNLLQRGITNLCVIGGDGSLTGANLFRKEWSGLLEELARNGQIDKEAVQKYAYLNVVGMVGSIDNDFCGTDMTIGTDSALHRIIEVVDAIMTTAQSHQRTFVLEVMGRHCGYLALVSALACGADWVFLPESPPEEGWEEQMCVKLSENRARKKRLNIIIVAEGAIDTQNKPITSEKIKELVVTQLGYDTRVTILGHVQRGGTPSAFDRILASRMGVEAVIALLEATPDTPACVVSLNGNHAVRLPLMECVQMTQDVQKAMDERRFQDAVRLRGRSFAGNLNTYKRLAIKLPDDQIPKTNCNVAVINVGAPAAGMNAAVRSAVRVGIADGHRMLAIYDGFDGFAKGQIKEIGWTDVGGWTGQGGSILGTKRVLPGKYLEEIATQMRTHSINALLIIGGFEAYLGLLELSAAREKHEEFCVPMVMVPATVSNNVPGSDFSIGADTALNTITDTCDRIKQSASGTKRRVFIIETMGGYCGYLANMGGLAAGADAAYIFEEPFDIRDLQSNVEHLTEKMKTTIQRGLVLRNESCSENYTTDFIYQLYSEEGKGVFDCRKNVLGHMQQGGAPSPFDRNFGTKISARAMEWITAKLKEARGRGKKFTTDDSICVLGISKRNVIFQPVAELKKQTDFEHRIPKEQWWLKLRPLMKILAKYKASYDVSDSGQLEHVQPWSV
Further: in the data inactive means no Kd found up to 30 µM.

Compound	Kd [1]	Kd (GTP-binding protein 4)	Kd [2]	Kd [3]	Kd [4]	Kd [5]	Kd [6]	Kd [7]	Kd [8]	Kd [9]	Kd [10]	Kd [11]	Kd [12]	Kd [13]
CO[C@H]1C[C@@H]2CC[C@@H](C)[C@@](O)(O2)C(=O)C(=O)N2CCCC[C@H]2C(=O)O[C@H]([C@H](C)C[C@@H]2CC[C@@H](OCCO)[C@H](OC)C2)CC(=O)[C@H](C)/C=C(\C)[C@@H](O)[C@@H](OC)C(=O)[C@H](C)C[C@H](C)/C=C/C=C/C=C/1C [EVEROLIMUS]	> 30 µM (inactive)	> 30 µM (inactive)	> 30 µM (inactive)	> 30 µM (inactive)	> 30 µM (inactive)	> 30 µM (inactive)	> 30 µM (inactive)	> 30 µM (inactive)	> 30 µM (inactive)	> 30 µM (inactive)	> 30 µM (inactive)	> 30 µM (inactive)	> 30 µM (inactive)	> 30 µM (inactive)
O=c1sn(-c2cccc3ccccc23)c(=O)n1Cc1ccccc1 [TIDEGLUSIB]	> 30 µM (inactive)	> 30 µM (inactive)	> 30 µM (inactive)	> 30 µM (inactive)	> 30 µM (inactive)	> 30 µM (inactive)	> 30 µM (inactive)	> 30 µM (inactive)	> 30 µM (inactive)	> 30 µM (inactive)	> 30 µM (inactive)	> 30 µM (inactive)	> 30 µM (inactive)	> 30 µM (inactive)
C=CC(=O)N1CCC(Oc2cc3c(Nc4ccc(Cl)c(Cl)c4F)ncnc3cc2OC)CC1 [POZIOTINIB]	> 30 µM (inactive)	> 30 µM (inactive)	0.048 µM (active)	> 30 µM (inactive)	> 30 µM (inactive)	> 30 µM (inactive)	> 30 µM (inactive)	> 30 µM (inactive)	> 30 µM (inactive)	> 30 µM (inactive)	> 30 µM (inactive)	> 30 µM (inactive)	> 30 µM (inactive)	> 30 µM (inactive)
CC(C)Nc1cc(-c2c[nH]c(C(=O)N[C@H](CO)c3cccc(Cl)c3)c2)c(Cl)cn1 [ULIXERTINIB]	> 30 µM (inactive)	> 30 µM (inactive)	> 30 µM (inactive)	> 30 µM (inactive)	0.16 µM (active)	> 30 µM (inactive)	> 30 µM (inactive)	> 30 µM (inactive)	> 30 µM (inactive)	> 30 µM (inactive)	> 30 µM (inactive)	> 30 µM (inactive)	> 30 µM (inactive)	> 30 µM (inactive)
CN1CC[C@@H](c2c(O)cc(O)c3c(=O)cc(-c4ccccc4Cl)oc23)[C@@H]1CO	> 30 µM (inactive)	> 30 µM (inactive)	> 30 µM (inactive)	> 30 µM (inactive)	> 30 µM (inactive)	> 30 µM (inactive)	> 30 µM (inactive)	> 30 µM (inactive)	> 30 µM (inactive)	> 30 µM (inactive)	> 30 µM (inactive)	> 30 µM (inactive)	> 30 µM (inactive)	> 30 µM (inactive)
Cc1ccc(S(=O)(=O)Nc2nc3ccccc3nc2Nc2ccc3nsnc3c2)cc1	> 30 µM (inactive)	> 30 µM (inactive)	> 30 µM (inactive)	> 30 µM (inactive)	> 30 µM (inactive)	> 30 µM (inactive)	> 30 µM (inactive)	> 30 µM (inactive)	> 30 µM (inactive)	> 30 µM (inactive)	> 30 µM (inactive)	> 30 µM (inactive)	> 30 µM (inactive)	> 30 µM (inactive)
N[C@@H]1CCCN(c2c(/C=C3\SC(=O)NC3=O)cccc2-c2ccccc2)C1	> 30 µM (inactive)	> 30 µM (inactive)	> 30 µM (inactive)	> 30 µM (inactive)	> 30 µM (inactive)	> 30 µM (inactive)	> 30 µM (inactive)	> 30 µM (inactive)	> 30 µM (inactive)	> 30 µM (inactive)	> 30 µM (inactive)	> 30 µM (inactive)	> 30 µM (inactive)	> 30 µM (inactive)
CCS(=O)(=O)N1CC(CC#N)(n2cc(-c3ncnc4[nH]ccc34)cn2)C1 [BARICITINIB]	> 30 µM (inactive)	> 30 µM (inactive)	> 30 µM (inactive)	> 30 µM (inactive)	> 30 µM (inactive)	> 30 µM (inactive)	> 30 µM (inactive)	> 30 µM (inactive)	> 30 µM (inactive)	> 30 µM (inactive)	> 30 µM (inactive)	> 30 µM (inactive)	> 30 µM (inactive)	> 30 µM (inactive)

Second part, the molecule after the results:

Kd [1]	Kd (GTP-binding protein 4)	Kd [2]	Kd [3]	Kd [4]	Kd [5]	Kd [6]	Kd [7]	Kd [8]	Kd [9]	Kd [10]	Kd [11]	Kd [12]	Kd [13]	Compound
> 30 µM (inactive)	> 30 µM (inactive)	> 30 µM (inactive)	> 30 µM (inactive)	> 30 µM (inactive)	> 30 µM (inactive)	> 30 µM (inactive)	> 30 µM (inactive)	> 30 µM (inactive)	> 30 µM (inactive)	> 30 µM (inactive)	> 30 µM (inactive)	> 30 µM (inactive)	> 30 µM (inactive)	Cn1cc(-c2ccc3nnc(C(F)(F)c4ccc5ncccc5c4)n3n2)cn1 [JNJ-38877605]
> 30 µM (inactive)	> 30 µM (inactive)	> 30 µM (inactive)	> 30 µM (inactive)	> 30 µM (inactive)	> 30 µM (inactive)	> 30 µM (inactive)	> 30 µM (inactive)	> 30 µM (inactive)	> 30 µM (inactive)	> 30 µM (inactive)	> 30 µM (inactive)	> 30 µM (inactive)	> 30 µM (inactive)	O=C1NC(=O)/C(=C/c2ccc3nccc(-c4ccncc4)c3c2)S1 [GSK-1059615]
> 30 µM (inactive)	> 30 µM (inactive)	> 30 µM (inactive)	> 30 µM (inactive)	> 30 µM (inactive)	> 30 µM (inactive)	> 30 µM (inactive)	0.3 µM (active)	> 30 µM (inactive)	> 30 µM (inactive)	> 30 µM (inactive)	> 30 µM (inactive)	> 30 µM (inactive)	> 30 µM (inactive)	O=C(Nc1ccc(-c2ccnc(Nc3ccc(N4CCOCC4)cc3)n2)cc1)C1CCCN1 (centres undefined) [XL-019]

— ChEMBL document CHEMBL3991601, “The target landscape of clinical kinase drugs” (Science, 2017)
